Tests used:
[1] = Toxicity in castrated nude mouse xenografted with human HCC827 cells assessed as body weight loss at 10 mg/kg, po daily for 14 consecutive days relative to control; type: organism-based; conditions: in vivo
[2] = Toxicity in castrated nude mouse xenografted with human NCI-H1975 cells assessed as body weight loss at 20 mg/kg, po daily for 14 consecutive days relative to control; type: organism-based; conditions: in vivo
Calu-3 = assay: Antiproliferative activity against human Calu3 cells harboring WT EGFR after 72 hrs by MTS assay; type: cell-based; conditions: Calu-3, 72 h
HCC827 [3] = assay: Antiproliferative activity against human HCC827 cells harboring EGFR mutant after 72 hrs by MTS assay; type: functional, cell-based; conditions: HCC827, 72 h
NCI-H1975 [4] = assay: Antitumor activity against human NCI-H1975 cells harboring EGFR T790M/L858R double mutant xenografted in castrated nude mouse assessed as tumor growth inhibition at 20 mg/kg, po daily for 14 consecutive days measured on day 15 relative to control; type: functional
NCI-H1975 [5] = assay: Antiproliferative activity against human NCI-H1975 cells harboring EGFR T790M/L858R double mutant after 72 hrs by MTS assay; type: functional, cell-based
Calu-6 = assay: Antiproliferative activity against human Calu6 cells harboring WT EGFR after 72 hrs by MTS assay; type: cell-based; conditions: Calu-6, 72 h
[6] = Toxicity in castrated nude mouse xenografted with human PC9 cells assessed as body weight loss at 10 mg/kg, po daily for 14 consecutive days relative to control; type: organism-based; conditions: in vivo
PC-9 [7] = assay: Antitumor activity against human PC9 cells harboring EGFR exon-19 del mutant xenografted in castrated nude mouse assessed as tumor growth inhibition at 10 mg/kg, po daily for 14 consecutive days measured on day 15 relative to control; type: functional
[8] = Half life in po dosed mouse; type: ADME, organism-based; conditions: in vivo
PC-9 [9] = assay: Antiproliferative activity against human PC9 cells harboring EGFR mutant after 72 hrs by MTS assay; type: functional, cell-based; conditions: PC-9, 72 h
HCC827 [10] = assay: Antitumor activity against human HCC827 cells harboring EGFR exon-19 del mutant xenografted in castrated nude mouse assessed as tumor growth inhibition at 10 mg/kg, po daily for 14 consecutive days measured on day 15 relative to control; type: functional
[11] = Selectivity index, ratio of IC50 for human Calu3 cells harboring WT EGFR to IC50 for human PC9 cells harboring EGFR mutant
[12] = molecular target: Epidermal growth factor receptor (Homo sapiens, UniProt P00533, L858R); assay: Inhibition of recombinant human GST-tagged EGFR L858R mutant expressed in baculovirus expression system by fluorescence assay
NCI-H1975 [13] = assay: Antitumor activity against human NCI-H1975 cells harboring EGFR T790M/L858R double mutant xenografted in castrated nude mouse assessed as tumor growth inhibition at 10 mg/kg, po daily for 14 consecutive days measured on day 15 relative to control; type: functional; conditions: 360 h, read-out: TGI
[14] = molecular target: Epidermal growth factor receptor (Homo sapiens, UniProt P00533, L858R/T790M); assay: Inhibition of recombinant human N-terminal GST-tagged EGFR T790M/L858R double mutant (696-end residues) by fluorescence assay
[15] = Selectivity index, ratio of IC50 for human Calu3 cells harboring WT EGFR to IC50 for human HCC827 cells harboring EGFR mutant
[16] = Selectivity index, ratio of IC50 for human A431 cells harboring WT EGFR to IC50 for human HCC827 cells harboring EGFR mutant
HCC827 [17] = assay: Antitumor activity against human HCC827 cells harboring EGFR exon-19 del mutant xenografted in castrated nude mouse assessed as tumor growth inhibition at 1 mg/kg, po daily for 14 consecutive days measured on day 15 relative to control; type: functional; conditions: 360 h, read-out: TGI
NCI-H1975 [18] = assay: Antitumor activity against human NCI-H1975 cells harboring EGFR T790M/L858R double mutant xenografted in castrated nude mouse assessed as tumor growth inhibition at 40 mg/kg, po daily for 14 consecutive days measured on day 15 relative to control; type: functional; conditions: 360 h, read-out: TGI
[19] = molecular target: T1, Epidermal growth factor receptor (Homo sapiens, UniProt P00533); assay: Inhibition of WT EGFR phosphorylation at Y1068 residue in human A431 cells up to 10 uM after 4 hrs by Western blot analysis; type: cell-based
[20] = Toxicity in castrated nude mouse xenografted with human HCC827 cells assessed as body weight loss at 0.3 to 10 mg/kg, po daily for 14 consecutive days; type: organism-based; conditions: in vivo
HCC827 [21] = assay: Antitumor activity against human HCC827 cells harboring EGFR exon-19 del mutant xenografted in castrated nude mouse assessed as tumor growth inhibition at 3 mg/kg, po daily for 14 consecutive days measured on day 15 relative to control; type: functional; conditions: 360 h, read-out: TGI
PC-9 [22] = assay: Antitumor activity against human PC9 cells harboring EGFR exon-19 del mutant xenografted in castrated nude mouse assessed as tumor growth inhibition administered orally daily for 14 consecutive days measured on day 15; type: functional, cell-based
PC-9 [23] = assay: Antitumor activity against human PC9 cells harboring EGFR exon-19 del mutant xenografted in castrated nude mouse assessed as tumor growth inhibition at 2 mg/kg, po daily for 14 consecutive days measured on day 15 relative to control; type: functional; conditions: PC-9, po, 360 h, read-out: TGI
[24] = Selectivity index, ratio of IC50 for human A431 cells harboring WT EGFR to IC50 for human PC9 cells harboring EGFR mutant
HCC827 [25] = assay: Antitumor activity against human HCC827 cells harboring EGFR exon-19 del mutant xenografted in castrated nude mouse assessed as tumor growth inhibition administered orally daily for 14 consecutive days measured on day 15; type: functional, cell-based
HCC827 [26] = assay: Antitumor activity against human HCC827 cells harboring EGFR exon-19 del mutant xenografted in castrated nude mouse assessed as tumor growth inhibition at 0.3 mg/kg, po daily for 14 consecutive days measured on day 15 relative to control; type: functional; conditions: 360 h, read-out: TGI
[27] = molecular target: T1, Epidermal growth factor receptor; assay: Inhibition of WT EGFR in human A431 cells assessed as reduction in ERK phosphorylation at T202/Y204 residues up to 10 uM after 4 hrs by Western blot analysis; type: cell-based
PC-9 [28] = assay: Antitumor activity against human PC9 cells harboring EGFR exon-19 del mutant xenografted in castrated nude mouse assessed as tumor growth inhibition at 20 mg/kg, po daily for 14 consecutive days measured on day 15 relative to control; type: functional; conditions: PC-9, po, 360 h, read-out: TGI
[29] = Toxicity in castrated nude mouse xenografted with human NCI-H1975 cells assessed as body weight loss at 5 to 40 mg/kg, po daily for 14 consecutive days; type: organism-based; conditions: in vivo
[30] = Selectivity index, ratio of IC50 for human Calu3 cells harboring WT EGFR to IC50 for human NCI-H1975 cells harboring EGFR T790M/L858R double mutant
[31] = Toxicity in castrated nude mouse xenografted with human PC9 cells assessed as body weight loss at 2 to 20 mg/kg, po daily for 14 consecutive days; type: organism-based; conditions: in vivo
PC-9 [32] = assay: Antitumor activity against human PC9 cells harboring EGFR exon-19 del mutant xenografted in castrated nude mouse assessed as tumor growth inhibition at 5 mg/kg, po daily for 14 consecutive days measured on day 15 relative to control; type: functional; conditions: PC-9, po, 360 h, read-out: TGI
[33] = Selectivity index, ratio of GI50 for human A431 cells harboring WT EGFR to GI50 for human NCI-H1975 cells harboring EGFR T790M/L858R double mutant
NCI-H1975 [34] = assay: Antitumor activity against human NCI-H1975 cells harboring EGFR T790M/L858R double mutant xenografted in castrated nude mouse assessed as tumor growth inhibition at 5 mg/kg, po daily for 14 consecutive days measured on day 15 relative to control; type: functional; conditions: 360 h, read-out: TGI
[35] = molecular target: T1, Epidermal growth factor receptor; assay: Inhibition of recombinant human N-terminal GST-tagged EGFR (696-end residues) expressed in baculovirus expression system using Srctide as substrate by fluorescence assay
Homo sapiens = species: Homo sapiens; assay: Selectivity index, ratio of IC50 for recombinant human N-terminal GST-tagged EGFR (696-end residues) expressed in baculovirus expression system to IC50 for recombinant human N-terminal GST-tagged EGFR T790M/L858R double mutant (696-end residues)
[36] = (§1) Antiproliferative activity against human A431 cells harboring WT EGFR after 72 hrs by MTS assay; type: cell-based, A-431; conditions: human, A431 cells harboring WT EGFR
A-431 = assay: as §1; type: cell-based; conditions: Homo sapiens, A-431, 72 h
NCI-H1975 [37] = assay: Antitumor activity against human NCI-H1975 cells harboring EGFR T790M/L858R double mutant xenografted in castrated nude mouse assessed as tumor growth inhibition administered orally daily for 14 consecutive days measured on day 15; type: functional, cell-based
[38] = Selectivity index, ratio of IC50 for human A431 cells harboring WT EGFR to IC50 for human NCI-H1975 cells harboring EGFR T790M/L858R double mutant

T1 sequence (P00533 whole entry): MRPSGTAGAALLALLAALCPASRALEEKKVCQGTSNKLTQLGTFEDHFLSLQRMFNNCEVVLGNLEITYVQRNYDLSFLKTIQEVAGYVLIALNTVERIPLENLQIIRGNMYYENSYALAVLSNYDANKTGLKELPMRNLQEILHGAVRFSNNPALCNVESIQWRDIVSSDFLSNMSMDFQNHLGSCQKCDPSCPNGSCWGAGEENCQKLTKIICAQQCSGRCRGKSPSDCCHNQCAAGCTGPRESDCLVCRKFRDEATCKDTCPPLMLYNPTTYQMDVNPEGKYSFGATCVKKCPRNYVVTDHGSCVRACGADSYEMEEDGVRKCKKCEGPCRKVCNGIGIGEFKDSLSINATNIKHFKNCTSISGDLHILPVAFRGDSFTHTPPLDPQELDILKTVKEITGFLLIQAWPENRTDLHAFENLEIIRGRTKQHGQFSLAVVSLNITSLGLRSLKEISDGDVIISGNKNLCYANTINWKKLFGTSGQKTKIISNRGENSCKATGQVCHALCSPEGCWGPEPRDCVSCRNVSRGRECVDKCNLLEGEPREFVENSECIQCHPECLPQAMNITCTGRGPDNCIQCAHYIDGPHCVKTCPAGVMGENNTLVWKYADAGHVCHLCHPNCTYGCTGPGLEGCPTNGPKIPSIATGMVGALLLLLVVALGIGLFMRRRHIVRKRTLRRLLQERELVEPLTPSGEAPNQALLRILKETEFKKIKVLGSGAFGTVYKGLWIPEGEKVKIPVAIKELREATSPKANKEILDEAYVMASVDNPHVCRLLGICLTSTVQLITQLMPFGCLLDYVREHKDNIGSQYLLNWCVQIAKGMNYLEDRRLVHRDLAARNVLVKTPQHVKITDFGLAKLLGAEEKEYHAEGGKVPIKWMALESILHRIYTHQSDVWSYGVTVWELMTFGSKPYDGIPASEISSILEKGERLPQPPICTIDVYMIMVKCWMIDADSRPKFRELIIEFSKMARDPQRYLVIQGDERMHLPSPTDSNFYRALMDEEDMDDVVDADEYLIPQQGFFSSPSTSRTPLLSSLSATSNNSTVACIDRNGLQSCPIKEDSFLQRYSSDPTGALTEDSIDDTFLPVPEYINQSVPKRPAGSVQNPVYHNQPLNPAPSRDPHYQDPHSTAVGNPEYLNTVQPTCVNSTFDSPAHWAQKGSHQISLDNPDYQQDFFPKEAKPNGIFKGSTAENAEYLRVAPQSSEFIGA
Sequence of Epidermal growth factor receptor (Homo sapiens, UniProt P00533, L858R/T790M) (P00533 25-1210 T790M/L858R limits assumed): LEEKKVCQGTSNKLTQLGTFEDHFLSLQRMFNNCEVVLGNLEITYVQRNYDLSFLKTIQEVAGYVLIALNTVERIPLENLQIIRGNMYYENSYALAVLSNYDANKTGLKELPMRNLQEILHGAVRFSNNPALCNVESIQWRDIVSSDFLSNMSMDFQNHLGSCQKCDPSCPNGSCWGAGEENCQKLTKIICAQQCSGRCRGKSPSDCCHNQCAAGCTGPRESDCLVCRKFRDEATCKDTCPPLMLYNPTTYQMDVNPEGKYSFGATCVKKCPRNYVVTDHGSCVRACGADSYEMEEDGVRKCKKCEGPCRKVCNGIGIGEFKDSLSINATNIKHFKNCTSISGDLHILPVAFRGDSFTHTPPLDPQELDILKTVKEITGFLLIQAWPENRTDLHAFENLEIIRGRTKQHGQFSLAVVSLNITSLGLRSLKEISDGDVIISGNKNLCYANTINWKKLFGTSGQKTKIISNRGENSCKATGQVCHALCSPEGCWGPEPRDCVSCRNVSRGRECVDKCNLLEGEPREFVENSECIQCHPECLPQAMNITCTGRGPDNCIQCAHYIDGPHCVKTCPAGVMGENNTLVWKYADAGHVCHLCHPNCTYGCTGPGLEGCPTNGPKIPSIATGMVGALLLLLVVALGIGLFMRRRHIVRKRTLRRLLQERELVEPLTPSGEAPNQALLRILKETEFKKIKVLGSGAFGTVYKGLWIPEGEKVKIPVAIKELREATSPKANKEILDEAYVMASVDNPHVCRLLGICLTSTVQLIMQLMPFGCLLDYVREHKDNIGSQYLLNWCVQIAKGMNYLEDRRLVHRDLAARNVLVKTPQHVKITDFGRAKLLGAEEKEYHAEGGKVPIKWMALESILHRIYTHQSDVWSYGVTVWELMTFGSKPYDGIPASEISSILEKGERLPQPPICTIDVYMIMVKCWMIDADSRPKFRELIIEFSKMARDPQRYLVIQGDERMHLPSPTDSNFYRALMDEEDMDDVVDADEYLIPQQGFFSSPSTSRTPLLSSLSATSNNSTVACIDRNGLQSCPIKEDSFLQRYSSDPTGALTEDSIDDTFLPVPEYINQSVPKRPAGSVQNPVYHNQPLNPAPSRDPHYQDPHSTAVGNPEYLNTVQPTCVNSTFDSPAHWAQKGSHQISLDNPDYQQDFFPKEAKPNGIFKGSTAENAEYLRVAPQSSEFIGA
Sequence of Epidermal growth factor receptor (Homo sapiens, UniProt P00533, L858R) (P00533 25-1210 L858R limits assumed): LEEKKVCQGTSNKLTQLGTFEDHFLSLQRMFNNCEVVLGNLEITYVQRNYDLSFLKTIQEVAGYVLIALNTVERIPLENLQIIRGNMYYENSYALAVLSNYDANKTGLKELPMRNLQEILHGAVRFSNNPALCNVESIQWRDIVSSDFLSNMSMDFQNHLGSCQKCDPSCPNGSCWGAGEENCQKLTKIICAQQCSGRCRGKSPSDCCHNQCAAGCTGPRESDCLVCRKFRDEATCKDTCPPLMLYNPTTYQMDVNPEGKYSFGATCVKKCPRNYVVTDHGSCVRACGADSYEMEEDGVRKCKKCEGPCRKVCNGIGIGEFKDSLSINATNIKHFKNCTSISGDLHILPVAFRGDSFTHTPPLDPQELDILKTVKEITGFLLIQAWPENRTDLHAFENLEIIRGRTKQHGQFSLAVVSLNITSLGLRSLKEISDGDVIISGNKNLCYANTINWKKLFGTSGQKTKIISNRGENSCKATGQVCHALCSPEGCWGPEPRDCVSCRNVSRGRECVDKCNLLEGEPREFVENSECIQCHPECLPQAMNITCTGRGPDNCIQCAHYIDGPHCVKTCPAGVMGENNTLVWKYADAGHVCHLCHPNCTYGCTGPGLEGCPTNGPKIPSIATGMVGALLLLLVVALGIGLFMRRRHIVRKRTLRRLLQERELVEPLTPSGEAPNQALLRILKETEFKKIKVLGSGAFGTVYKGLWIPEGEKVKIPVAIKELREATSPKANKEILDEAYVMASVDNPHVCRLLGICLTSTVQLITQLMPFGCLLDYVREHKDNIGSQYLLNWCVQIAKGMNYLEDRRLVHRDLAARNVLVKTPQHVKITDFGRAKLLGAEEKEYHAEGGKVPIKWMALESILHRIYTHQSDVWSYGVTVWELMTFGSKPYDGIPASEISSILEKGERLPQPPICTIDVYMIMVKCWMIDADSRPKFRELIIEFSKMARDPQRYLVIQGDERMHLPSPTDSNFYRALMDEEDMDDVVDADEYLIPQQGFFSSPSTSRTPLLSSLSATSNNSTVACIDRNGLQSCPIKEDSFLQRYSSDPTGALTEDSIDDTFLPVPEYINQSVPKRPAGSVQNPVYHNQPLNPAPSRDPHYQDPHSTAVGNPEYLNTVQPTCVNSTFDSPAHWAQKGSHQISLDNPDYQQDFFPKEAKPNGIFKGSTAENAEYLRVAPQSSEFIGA

C=CC(=O)Nc1cc(Nc2nccc(-c3cn(C)c4ccccc34)n2)c(OC)cc1N(C)CCN(C)C [OSIMERTINIB]
Activity [1]: 8% | Activity [2]: <= 15% | IC50 (Calu-3): 750 nM | IC50 (HCC827 [3]): […] | TGI (NCI-H1975 [4]): 107% | GI50 (NCI-H1975 [5]): […] | IC50 (NCI-H1975 [5]; Homo sapiens, NCI-H1975, 72 h): […] | IC50 (Calu-6): 5.86 µM | Activity [6]: 8% | TGI (PC-9 [7]): 106% | half-life [8]: 180 min | IC50 (PC-9 [9]): 160 nM | TGI (HCC827 [10]): 121%

C=CC(=O)Nc1cc(Nc2nccc(-c3cn(C)c4cccnc34)n2)c(OC)cc1N(C)CCN(C)C
Ratio IC50 [11]: 50 | IC50 [12]: 5.5 µM | inhibition in vivo at 10 mg/kg (NCI-H1975 [13]): 84% | IC50 (Calu-3): > 10000 nM | IC50 (HCC827 [3]): 15 nM | IC50 [14]: 2100 nM | Ratio IC50 [15]: 666.7 | Ratio IC50 [16]: 219.3 | inhibition in vivo at 20 mg/kg (NCI-H1975 [4]; Mus musculus, NCI-H1975, po, 360 h, read-out: TGI): 99% | inhibition in vivo at 1 mg/kg (HCC827 [17]): 83% | inhibition in vivo at 40 mg/kg (NCI-H1975 [18]): 106% | inhibition (INH) [19]: Not Active | Activity [20]: Non-Toxic | GI50 (NCI-H1975 [5]; Homo sapiens, NCI-H1975, 72 h): 6.8 nM | IC50 (NCI-H1975 [5]; Homo sapiens, NCI-H1975, 72 h): 140 nM | inhibition in vivo at 3 mg/kg (HCC827 [21]): 119% | TGI (PC-9 [22]): Dose-dependent effect | IC50 (Calu-6): > 10 µM | inhibition in vivo at 2 mg/kg (PC-9 [23]): 67% | inhibition in vivo at 10 mg/kg (PC-9 [7]; Mus musculus, PC-9, po, 360 h, read-out: TGI): 104% | Ratio IC50 [24]: 16.5 | TGI (HCC827 [25]): Dose-dependent effect | inhibition in vivo at 0.3 mg/kg (HCC827 [26]): 74% | IC50 (PC-9 [9]): 200 nM | inhibition (INH) [27]: Not Active | inhibition in vivo at 20 mg/kg (PC-9 [28]): 107% | Activity [29]: Non-Toxic | Ratio IC50 [30]: 71.4 | Activity [31]: Non-Toxic | inhibition in vivo at 5 mg/kg (PC-9 [32]): 94% | RatioGI50 [33]: 73.5 | inhibition in vivo at 5 mg/kg (NCI-H1975 [34]): 48% | IC50 [35]: 63 µM | inhibition in vivo at 10 mg/kg (HCC827 [10]; Mus musculus, HCC827, po, 360 h, read-out: TGI): 125% | Ratio IC50 (Homo sapiens): 30 | GI50 at 72 h [36]: 500 nM | IC50 (A-431): 3.29 µM | TGI (NCI-H1975 [37]): Dose-dependent effect | Ratio IC50 [38]: 23.5
